Data on 25 compounds can be found in US20060093617A1, “Peptides for inducing a CTL and/or HTL response to hepatitis C virus” (Innogenetics, N.V., priority 2004, published 2006).

Each structure is given as a SMILES string. Where a SMILES comes first, the peptide text is derived from it.

The first test concerns the target T1, HLA-Cw06 (Homo sapiens, UniProt P10321, A176E/A330V/C350S/L171W/L180W/L218V/M285V/M309V/M331V/N104K/P208H/Q277E/Q291P/R121W/R243W/S101N/S123Y/S297R/T329A/T363A/V319A/V328M).
T1 construct: endogenous in cells
The test is described as follows: HLA class I competition cell-based binding assay.
`CC[C@H](C)[C@H](NC(=O)[C@@H](NC(=O)[C@@H](N)CCC(=O)O)C(C)C)C(=O)N[C@@H](CCCCN)C(=O)NCC(=O)NCC(=O)N[C@@H](CCCNC(=N)N)C(=O)N[C@@H](Cc1c[nH]cn1)C(=O)N[C@@H](CC(C)C)C(=O)O`: the Ki (as a rule, a dissociation constant, usually derived from enzyme kinetics or from competition with a known ligand) is 12.8 µM. This lies in the double-digit micromolar range.

As to `CC[C@H](C)[C@H](NC(=O)CNC(=O)[C@H](CCCNC(=N)N)NC(=O)[C@H](CCCNC(=N)N)NC(=O)CN)C(=O)N[C@@H](Cc1ccc(O)cc1)C(=O)N[C@@H](CCCNC(=N)N)C(=O)N[C@@H](Cc1ccccc1)C(=O)N[C@H](C(=O)O)C(C)C`, the Ki was found to be 0.576 µM.

On to `CC(C)C[C@H](NC(=O)CNC(=O)[C@H](CCCNC(=N)N)NC(=O)[C@H](Cc1ccc(O)cc1)NC(=O)[C@H](Cc1ccc(O)cc1)NC(=O)[C@H](C)NC(=O)[C@@H](NC(=O)[C@H](C)NC(=O)[C@@H](N)CC(N)=O)C(C)C)C(=O)O`, for which the Ki was determined as 10.8 µM.

With `CC[C@H](C)[C@H](NC(=O)[C@H](CC(C)C)NC(=O)[C@H](Cc1c[nH]cn1)NC(=O)[C@H](CCCNC(=N)N)NC(=O)CNC(=O)CNC(=O)[C@H](CCCCN)NC(=O)[C@@H](NC(=O)[C@@H](N)C(C)C)[C@@H](C)CC)C(=O)N[C@@H](Cc1ccccc1)C(=O)O`, the Ki is 17.5 µM.

For the compound `CC(C)C[C@H](NC(=O)[C@@H](NC(=O)[C@H](CCC(N)=O)NC(=O)[C@H](CC(C)C)NC(=O)[C@H](CCCNC(=N)N)NC(=O)[C@H](CC(=O)O)NC(=O)[C@H](Cc1ccccc1)NC(=O)[C@@H](NC(=O)[C@@H](N)C(C)C)[C@@H](C)O)C(C)C)C(=O)O`, the Ki was 1.13 µM.

In turn, `CC(C)C[C@H](NC(=O)[C@H](CCCNC(=N)N)NC(=O)[C@@H](N)Cc1ccc(O)cc1)C(=O)NCC(=O)N[C@@H](C)C(=O)N[C@H](C(=O)N[C@@H](CCC(N)=O)C(=O)N[C@@H](CC(N)=O)C(=O)N[C@@H](CCC(=O)O)C(=O)N[C@H](C(=O)O)C(C)C)C(C)C` gave a Ki of 0.217 µM.

Consider `CC(C)[C@H](NC(=O)CNC(=O)[C@H](CO)NC(=O)[C@H](C)NC(=O)[C@H](CCCNC(=N)N)NC(=O)[C@H](CS)NC(=O)[C@H](CCCNC(=N)N)NC(=O)[C@H](CCCNC(=N)N)NC(=O)[C@@H](N)Cc1ccc(O)cc1)C(=O)O`, for which the Ki was 0.634 µM.

Consider `CC(C)C[C@H](NC(=O)[C@@H](NC(=O)[C@H](CCCCN)NC(=O)[C@H](Cc1ccc(O)cc1)NC(=O)CNC(=O)[C@H](CCC(N)=O)NC(=O)[C@H](C)NC(=O)[C@H](C)N)C(C)C)C(=O)N[C@H](C(=O)O)C(C)C` (H-AAQGYKVLV-OH; N-terminus and C-terminus assumed), for which affinity was put at a Ki of 6.32 µM. This Ki lies about 10-fold higher than the previous one.

Regarding `CC(C)C[C@H](NC(=O)[C@H](C)NC(=O)[C@H](CCCNC(=N)N)NC(=O)[C@H](C)N)C(=O)N[C@@H](C)C(=O)N[C@@H](Cc1c[nH]cn1)C(=O)NCC(=O)N[C@H](C(=O)N[C@@H](CCCNC(=N)N)C(=O)N[C@H](C(=O)O)C(C)C)C(C)C` (H-ARALAHGVRV-OH; N-terminus and C-terminus assumed), the Ki was found to be 9.88 µM.

Compound `CC(C)[C@H](NC(=O)[C@H](CCCNC(=N)N)NC(=O)[C@H](CCC(N)=O)NC(=O)CNC(=O)[C@@H]1CCCN1C(=O)[C@H](CO)NC(=O)[C@H](Cc1ccc(O)cc1)NC(=O)[C@H](CCC(N)=O)NC(=O)[C@@H](N)Cc1ccccc1)C(=O)O` (H-FQYSPGQRV-OH) came in with a Ki of 0.387 µM. This Ki is about 26-fold lower than that of the compound before.

As to `CC(C)[C@H](NC(=O)CNC(=O)[C@H](CCCNC(=N)N)NC(=O)[C@@H](NC(=O)[C@H](CS)NC(=O)[C@@H](NC(=O)[C@H](C)NC(=O)[C@H](C)NC(=O)[C@H](CCCNC(=N)N)NC(=O)[C@@H](N)Cc1ccccc1)C(C)C)[C@@H](C)O)C(=O)O` (H-FRAAVCTRGV-OH; N-terminus and C-terminus assumed), the Ki worked out at 0.486 µM.

Consider `CC[C@H](C)[C@H](NC(=O)[C@H](CC(C)C)NC(=O)[C@H](CCCNC(=N)N)NC(=O)[C@H](C)NC(=O)[C@@H]1CCCN1C(=O)[C@H](CCCCN)NC(=O)[C@H](CCCNC(=N)N)NC(=O)CN)C(=O)N[C@H](C(=O)O)C(C)C` (H-GRKPARLIV-OH; N-terminus and C-terminus assumed), for which the inhibitory constant (Ki) stood at 2.04 µM. Against the preceding compound, the Ki is about 4.2-fold higher.

The compound `CC[C@H](C)[C@H](N)C(=O)N[C@@H](CCCNC(=N)N)C(=O)N[C@@H](CO)C(=O)N[C@@H](CC(C)C)C(=O)N[C@H](C(=O)N[C@@H](CCC(=O)O)C(=O)N[C@@H](CCCNC(=N)N)C(=O)N[C@@H](CC(C)C)C(=O)N[C@@H](Cc1ccc(O)cc1)C(=O)N[C@H](C(=O)O)[C@@H](C)CC)[C@@H](C)O` (H-IRSLTERLYI-OH; N-terminus and C-terminus assumed) gave an inhibitory constant (Ki) of 6.22 µM. Compared with the last compound, the Ki is about 3-fold higher.

`CC[C@H](C)[C@H](NC(=O)[C@H](CC(C)C)NC(=O)[C@H](CCCNC(=N)N)NC(=O)[C@H](C)NC(=O)[C@@H]1CCCN1C(=O)[C@H](CCCCN)NC(=O)[C@@H](N)CCCNC(=N)N)C(=O)N[C@H](C(=O)N[C@@H](Cc1ccccc1)C(=O)O)C(C)C` (H-RKPARLIVF-OH; N-terminus and C-terminus assumed): affinity was put at a Ki of 8.28 µM. This Ki and that of the compound before are within 1.5-fold of each other.

`CC[C@H](C)[C@H](NC(=O)[C@H](CCC(N)=O)NC(=O)CNC(=O)CNC(=O)CNC(=O)[C@@H]1CCCN1C(=O)[C@H](Cc1ccccc1)NC(=O)[C@H](CCCCN)NC(=O)[C@@H](N)C(C)C)C(=O)N[C@H](C(=O)O)C(C)C` (H-VKFPGGGQIV-OH; N-terminus and C-terminus assumed) came in with a Ki of 0.417 µM. This Ki is about 20-fold lower than that of the compound before.

As to `CC(C)C[C@H](NC(=O)[C@@H](NC(=O)[C@H](CCCCN)NC(=O)[C@H](Cc1ccc(O)cc1)NC(=O)CNC(=O)[C@H](CCC(N)=O)NC(=O)[C@H](C)NC(=O)[C@H](C)NC(=O)[C@@H](N)Cc1ccc(O)cc1)C(C)C)C(=O)N[C@H](C(=O)O)C(C)C` (H-YAAQGYKVLV-OH; N-terminus and C-terminus assumed), the Ki came to 9.21 µM.

A further test addresses HLA-A02 (Homo sapiens, UniProt P04439, D140Y/D185E/D98H/E176V/E277Q/G131W/G231S/I119V/I121R/I166T/I218V/L300P/L318F/N151K/N90K/P208A/P217A/Q86G/Q94H/R138H/R169H/T345S). In words: Competition binding assay using soluble HLA class I.
Turning to `CC(C)[C@H](NC(=O)[C@@H](NC(=O)[C@H](C)NC(=O)[C@H](CCC(N)=O)NC(=O)[C@@H](N)Cc1ccc(O)cc1)[C@@H](C)O)C(=O)N[C@@H](CS)C(=O)N[C@@H](C)C(=O)N[C@@H](CCCNC(=N)N)C(=O)N[C@@H](C)C(=O)O` (H-YQATVCARA-OH), the concentration for half-maximal inhibition (IC50) (usually the midpoint of a concentration-inhibition curve) was determined as 0.02 µM and the Ki is 0.02 µM.

`CC(C)C[C@H](NC(=O)[C@H](C)NC(=O)[C@H](CC(C)C)NC(=O)[C@H](CC(C)C)NC(=O)[C@H](CC(C)C)NC(=O)[C@H](CC(C)C)NC(=O)[C@H](CC(C)C)NC(=O)[C@H](CC(C)C)NC(=O)[C@@H]1CCCN1)C(=O)O` [PLLLLLLAL] (H-PLLLLLLAL-OH) registered a Ki of 6.55 µM.

In the next test the target is T2, DRB1*0101 (Homo sapiens, UniProt P01903+P01911, A100R/D57E/F55L/F60I/F76Y/I96L/L162R/M171V/P40L/Q125E/R42F/V115G/Y59C).
T2 construct: endogenous in cells; host or cells: cell lysate
In words: Competition binding assay using soluble HLA class II.
The compound `CC[C@H](C)[C@H](NC(=O)[C@H](CC(C)C)NC(=O)[C@H](CC(=O)O)NC(=O)[C@H](C)NC(=O)[C@@H](N)CC(=O)O)C(=O)N[C@@H](CCC(=O)O)C(=O)N[C@@H](C)C(=O)N[C@@H](CC(N)=O)C(=O)N[C@@H](CC(C)C)C(=O)N[C@@H](CC(C)C)C(=O)N[C@@H](Cc1c[nH]c2ccccc12)C(=O)N[C@@H](CCCNC(=N)N)C(=O)N[C@@H](CCC(N)=O)C(=O)N[C@@H](CCC(=O)O)C(=O)N[C@@H](CCSC)C(=O)O` registered an IC50 of 0.574 µM. In other words, the sub-micromolar range.

`CSCC[C@H](NC(=O)[C@H](CC(C)C)NC(=O)[C@H](C)NC(=O)[C@H](CC(=O)O)NC(=O)[C@@H](NC(=O)[C@H](C)NC(=O)[C@@H](NC(=O)[C@@H](NC(=O)[C@@H](NC(=O)[C@@H](NC(=O)[C@@H](N)CC(=O)O)C(C)C)C(C)C)C(C)C)C(C)C)[C@@H](C)O)C(=O)N[C@H](C(=O)NCC(=O)N[C@@H](Cc1ccc(O)cc1)C(=O)N[C@H](C(=O)O)[C@@H](C)O)[C@@H](C)O` showed an IC50 of 0.456 µM. The IC50 values of the last two compounds are within 1.5-fold of each other.

As for `CC(C)[C@H](NC(=O)[C@H](CCCNC(=N)N)NC(=O)[C@H](CCC(N)=O)NC(=O)CNC(=O)[C@@H]1CCCN1C(=O)[C@H](CO)NC(=O)[C@H](Cc1ccc(O)cc1)NC(=O)[C@H](CCC(N)=O)NC(=O)[C@H](Cc1ccccc1)NC(=O)CNC(=O)[C@H](Cc1ccc(O)cc1)NC(=O)[C@H](CO)NC(=O)[C@H](CO)NC(=O)CN)C(=O)N[C@@H](CCC(=O)O)C(=O)O`, the IC50 was 0.011 µM.

`CC(C)C[C@H](NC(=O)[C@H](CC(N)=O)NC(=O)CNC(=O)[C@@H](NC(=O)[C@H](C)NC(=O)[C@H](Cc1ccc(O)cc1)NC(=O)[C@H](CC(N)=O)NC(=O)[C@@H](NC(=O)CN)C(C)C)[C@@H](C)O)C(=O)N1CCC[C@H]1C(=O)NCC(=O)N[C@@H](CS)C(=O)N[C@@H](CO)C(=O)N[C@@H](Cc1ccccc1)C(=O)N[C@@H](CO)C(=O)O` yielded an IC50 of 4.56 µM.

In the case of `CC(C)C[C@H](NC(=O)[C@H](C)NC(=O)CNC(=O)[C@H](C)NC(=O)[C@@H](NC(=O)CNC(=O)[C@H](C)NC(=O)CNC(=O)[C@H](Cc1ccc(O)cc1)NC(=O)CNC(=O)[C@H](C)NC(=O)[C@@H](N)CC(C)C)C(C)C)C(=O)N[C@H](C(=O)N[C@@H](C)C(=O)N[C@@H](Cc1ccccc1)C(=O)O)C(C)C`, the IC50 turned out to be 0.137 µM.

Take `CC(C)C[C@H](NC(=O)[C@H](Cc1c[nH]cn1)NC(=O)[C@H](C)NC(=O)[C@@H](NC(=O)[C@H](CCC(N)=O)NC(=O)[C@H](Cc1ccccc1)NC(=O)[C@@H](NC(=O)[C@H](CCC(N)=O)NC(=O)[C@@H]1CCCN1)[C@@H](C)O)C(C)C)C(=O)N[C@@H](Cc1c[nH]cn1)C(=O)N[C@@H](C)C(=O)N1CCC[C@H]1C(=O)N[C@H](C(=O)NCC(=O)N[C@@H](CO)C(=O)O)[C@@H](C)O`: the IC50 came to 0.022 µM.

As to `CC[C@H](C)[C@H](NC(=O)[C@@H]1CCCN1C(=O)[C@H](C)NC(=O)[C@H](CC(C)C)NC(=O)[C@H](CC(C)C)NC(=O)[C@H](CCCNC(=N)N)NC(=O)[C@H](Cc1c[nH]c2ccccc12)NC(=O)CNC(=O)[C@H](CCCCN)NC(=O)[C@@H](N)CO)C(=O)N[C@H](C(=O)N[C@@H](C)C(=O)N[C@@H](Cc1ccc(O)cc1)C(=O)N[C@@H](C)C(=O)N[C@@H](CCC(N)=O)C(=O)O)[C@@H](C)O`, the IC50 was 0.0004 µM.
